Measurements published in publication PMC2430599, “Solution Structure and Sugar-Binding Mechanism of Mouse Latrophilin-1 RBL: a 7TM Receptor-Attached Lectin-Like Domain” (Structure(London, England:1993), 2008).
Where a chain is given by its changes, count along the chain named. “And” between values parts separate entries of the source, which are not always exact repeats. Equal entries are not always repeated.

How the values were obtained:
[1] = biological target: T1, RBL domain of mouse Lat-1 (WT) (Mus musculus, UniProt Q80TR1); assay: NMR chemical shift perturbation titration of carbohydrates, wild-type RBL; format: binding; details: for Kd / Kd, WT: NMR titration, 30°C, 20 mM sodium phosphate pH 7.0, error from curve fitting, NBD = no binding detected (up to 100 mM compound)
T1 construct: Analytical ultracentrifugation experiments on RBL (residues 30–134) and larger constructs indicated a monomer in solution; α-factor signal propeptide (secretion leader) (N, cleaved yes); made in house; host or cells: Pichia pastoris strain X-33
T1 sequence (Q80TR1 30-134): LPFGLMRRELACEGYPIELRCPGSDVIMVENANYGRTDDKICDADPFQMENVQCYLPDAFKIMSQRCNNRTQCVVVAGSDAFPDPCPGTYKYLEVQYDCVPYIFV

RBL K120R = biological target: T2, RBL K120R (Mus musculus, UniProt Q80TR1, K120R); assay: NMR titration, RBL K120R mutant; details: NBD = no binding detected
T2 construct: Analytical ultracentrifugation experiments on RBL (residues 30–134) and larger constructs indicated a monomer in solution; α-factor signal propeptide (secretion leader) (N, cleaved yes); made in house; host or cells: Pichia pastoris strain X-33
T2 sequence (Q80TR1 30-134 K120R): T1 sequence (Q80TR1 30-134) with K91R

RBL K120A = biological target: T3, RBL K120A (Mus musculus, UniProt Q80TR1, K120A); assay: NMR titration, RBL K120A mutant; details: NBD = no binding detected
T3 construct: Analytical ultracentrifugation experiments on RBL (residues 30–134) and larger constructs indicated a monomer in solution; α-factor signal propeptide (secretion leader) (N, cleaved yes); made in house; host or cells: Pichia pastoris strain X-33
T3 sequence (Q80TR1 30-134 K120A): T1 sequence (Q80TR1 30-134) with K91A

RBL E42A = biological target: T4, RBL E42A (Mus musculus, UniProt Q80TR1, E42A); assay: NMR titration, RBL E42A mutant; details: NBD = no binding detected
T4 construct: Analytical ultracentrifugation experiments on RBL (residues 30–134) and larger constructs indicated a monomer in solution; α-factor signal propeptide (secretion leader) (N, cleaved yes); made in house; host or cells: Pichia pastoris strain X-33
T4 sequence (Q80TR1 30-134 E42A): T1 sequence (Q80TR1 30-134) with E13A

RBL E42R = biological target: T5, RBL E42R (Mus musculus, UniProt Q80TR1, E42R); assay: NMR titration, RBL E42R mutant; details: NBD = no binding detected
T5 construct: Analytical ultracentrifugation experiments on RBL (residues 30–134) and larger constructs indicated a monomer in solution; α-factor signal propeptide (secretion leader) (N, cleaved yes); made in house; host or cells: Pichia pastoris strain X-33
T5 sequence (Q80TR1 30-134 E42R): T1 sequence (Q80TR1 30-134) with E13R

SUEL = SUEL (Heliocidaris crassispina, UniProt P22031); assay: biochemical; format: binding, sea urchin
SUEL, sequence (P22031 whole entry, the tested form may be a part): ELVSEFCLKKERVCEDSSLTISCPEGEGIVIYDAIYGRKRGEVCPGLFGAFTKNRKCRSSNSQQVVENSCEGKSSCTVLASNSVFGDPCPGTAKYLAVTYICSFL

[2] = biological target: T6, RBL domain of mouse Lat-1 (Mus musculus, UniProt Q80TR1); assay: Printed glycan array chip screen with AlexaFluor 488 labelled RBL (Consortium for Functional Glycomics); format: binding
T6 construct: Analytical ultracentrifugation experiments on RBL (residues 30–134) and larger constructs indicated a monomer in solution; α-factor signal propeptide (secretion leader) (N, cleaved yes); made in house; host or cells: Pichia pastoris strain X-33
T6 sequence (Q80TR1 30-134): T1 sequence (Q80TR1 30-134)

Row | Compound | Kd, WT [1] | Kd [1] | other results
1 | OC[C@H]1O[C@H](OCC2O[C@@H](O)[C@H](O)[C@@H](O)[C@@H]2O)[C@H](O)[C@@H](O)[C@H]1O (stereo partly shown) [Melibiose] | – | 33.3 ± 0.5 mM | –
2 | OC[C@H]1OC(O)[C@H](O)[C@@H](O)[C@H]1O (stereo partly drawn) [D-galactose] | – | 33.6 ± 0.4 mM | Kd, K120R (RBL K120R): NBD; Kd, K120A (RBL K120A): NBD; Kd, E42A (RBL E42A): NBD; Kd, E42R (RBL E42R): NBD
3 | C[C@@H]1O[C@@H](O[C@H]2C[C@@H](O)[C@]3(CO)[C@H]4[C@H](O)C[C@]5(C)[C@@H](C6=CC(=O)OC6)CC[C@]5(O)[C@@H]4CC[C@]3(O)C2)[C@H](O)[C@H](O)[C@H]1O [Ouabain] | – | 2.21 ± 0.03 mM | –
4 | O=C[C@H](O)[C@@H](O)[C@H](O)[C@H](O)C(=O)O [D-glucuronic acid] | NBD | – | –
5 | OC1OC[C@@H](O)[C@@H](O)[C@@H]1O (stereo partly drawn) [D-arabinose] | NBD | – | –
6 | C[C@@H]1OC(O)[C@H](O)[C@H](O)[C@H]1O (stereo partly drawn) [L-rhamnose] | – | 1.8 mM and 1.78 mM | Kd, K120R (RBL K120R): NBD; Kd, K120A (RBL K120A): NBD; Kd (SUEL): 0.1 to 0.2 mM; affinity of SUEL relative to Lat-1 RBL (times tighter) (SUEL; SUEL Kd vs Lat-1 RBL Kd 1.8 mM, ref Hosono et al., 1999): 10; Kd, E42A (RBL E42A): NBD; Kd, E42R (RBL E42R): NBD
7 | OC[C@H]1OC(O)[C@H](O)[C@@H](O)[C@@H]1O (stereo partly drawn) [D-glucose] | NBD | – | –
8 | Galα1-3(Fucα1-2)Galβ1-3GlcNAcβ-Sp0 [glycan #95] | – | – | binding in NMR titration compared to galactose ([1]; NMR titration with glycan as ligand): did not show stronger or altered binding compared to galactose; binding on immobilized glycan array ([2]; fluorescently labeled RBL, glycan array version 3.0, 320 glycan targets, triplicate): any interaction; level of fluorescent signal relative to what is commonly found in this assay ([2]; glycan array version 3.0): approximately 1/20
9 | O[C@@H]1[C@@H](O)[C@@H](O)CO[C@H]1O [L-arabinose] | – | 75 ± 1.3 mM | –
10 | C[C@H]1OC(O)[C@H](O)[C@@H](O)[C@H]1O (stereo partly drawn) [D-fucose] | – | 61 ± 1.3 mM | –

Continued, in another order:

Row | Kd, WT [1] | Compound | Kd [1] | other results
11 | NBD | OC[C@H]1OC(O)[C@@H](O)[C@@H](O)[C@@H]1O (stereo partly drawn) [D-mannose] | – | –
12 | NBD | Heparin | – | –
13 | NBD | CC(=O)N[C@H]1[C@H]([C@H](O)[C@H](O)CO)OC(O)(C(=O)O)C[C@@H]1O (stereo partly shown) [N-acetyl neuraminic acid] | – | –
14 | NBD | CC(=O)N[C@@H]1[C@@H](O)[C@H](O)[C@@H](CO)O[C@H]1O [N-acetyl glucosamine] | – | –
15 | NBD | CC(=O)N[C@@H]1[C@@H](O)[C@@H](O)[C@@H](CO)O[C@@H]1O [N-acetyl galactosamine] | – | –
16 | NBD ^c | C[C@H](O)[C@@H](O)[C@@H](O)[C@H](O)C=O [L-fucose] | – | –
